Reference: patent publication US9963480B2, “Nucleoside phosphoramidate compound and use thereof” (priority 2013, dated 2018)
Where two headings read alike, the source gives them in different places.

System: HCV 1b replicon
Experiment: Antiviral activity assay in HCV replicon system (Huh7 1b cells, luciferase reporter)
Type: cell-based
Conditions: Hepatitis C virus
Description: The cell line Huh7 1b, which was provided by WuXi AppTec Co., Ltd. in Shanghai, contained an HCV 1b replicon with a stable Luciferase (Luc) reporter. It was constructed by cloning HCV nonstructural protein gene, neo (G418 resistance) and luciferase reporter gene into the pBR vector through gene recombination technology. Then the vector carrying the HCV replicon was transfected into Huh7 cells, and the transfected Huh7 cells were screened by G418 resistance. The HCV replicon was stably replicated, and the related protein and luciferase were stably expressed in Huh7 cells. The cells model was used for in-vitro screen of anti-HCV compounds. The anti-HCV activity of the compounds was measured by detecting the level of luciferase expression. See Lohmann V, et al. 1999. Replication of subgenomic hepatitis C virus RNAs in a hepatoma cell line. Science. 285(5424):110-113.
The control drug used in this experimental example was the compound of Example 25 in WO 2008/121634 (PCT/US2008/058183), i.e. (S)-2-{[(2R,3R,4R,5R)-5-(2,4-dioxo-3,4-dihydro-2H-pyrimidin-1-yl)-4-fluoro-3-hydr oxy-4-methyl-tetrahydro-furan-2-ylmethoxy]-phenoxy-phosphorylamino}-propanoic acid isopropyl ester. This compound was prepared according to the method described in J. Org. chem, 2011, 76, 8311-8319, and identified by H-NMR and mass spectrometry.
• 2.1 compound preparation: adding each of the compounds listed in Table 2 to 96-well plates using a POD™ 810 Automation Platform (LabCyte Corporation, USA), with 10 μM of each of the compounds as a starting concentration and in duplicate; serially diluting each of the compounds in 3-fold fashion and formulating 10 concentrations, with the final concentration of DMSO being 0.5%; • 2.2 cells preparation: seeding the Huh71b cells into 96-well plates respectively with a volume of 125 μl and 8×10^3 cells/well, and incubating in a 37° C., 5% CO2 incubator for 72 h; • 2.3 detection of cell activity: adding 30 μl per cell of the CellTiter-Fluor™ Reagent, incubating in a 37° C., 5% CO2 incubator for 1 h, measuring the fluorescence signal values with a fluorometer, and using the obtained data for calculation of cytotoxicities of the compounds; • 2.4 Bright-Glo detection: adding 100 μl per well of the Bright-Glo™ Luciferase Substrate, using a chemiluminescence detection system EnVision™ (PerkinElmer, USA) to detect the fluorescence signal values within 5 minutes, and using the obtained data for calculation of potencies of the compounds. • 2.5 data processing: converting the obtained data to a percentage of cell viability (Viability %) using the following formula:
[formula] • CPD: fluorescence signal value of the well added with the compound • ZPE (Zero percent effect): fluorescence signal value of the control well with zero percent effect. • Processing the raw data to calculate a percentage of inhibition (Inhibition %) using the following formula:
[formula] • CPD: fluorescence signal value of the well added with the compound; • HPE (Hundred percent effect): fluorescence signal value of the control well with hundred percent effect; • ZPE (Zero percent effect): fluorescence signal value of the control well with zero percent effect.
The inhibition percentage was processed by the GraphPad Prism software to obtain the corresponding curves and EC50 values.

[1] = Huh-7, Huh7 1b cells with HCV 1b replicon, Bright-Glo luciferase, 72 h, read-out: EC50

Row | SMILES | EC50 [1] | EC50 (Huh-7, 72 h)
1 | COc1cc(/C=C/c2ccc(OP(=O)(N[C@@H](C)C(=O)OC(C)C)OC[C@H]3O[C@@H](n4ccc(=O)[nH]c4=O)[C@](C)(F)[C@@H]3O)cc2)cc(OC)c1 (stereo in doubt) [Example 8, (2S)-2-((((E)-4-(3,5-dimethoxyphenylethenyl)phen-1-yloxy)(((2R,3R,4R,5R)-5-(2,4-dioxo-3,4-dihydropyrimidin-1(2H)-yl)-4-fluoro-3-hydroxy-4-methyltetrahydrofuran-2-yl)methoxy)phosphoryl)amino)propanoic Acid Isopropyl Ester] | 411 nM | 
2 | CC(C)OC(=O)[C@H](C)NP(=O)(OC[C@H]1O[C@@H](n2ccc(=O)[nH]c2=O)[C@](C)(F)[C@@H]1O)Oc1ccccc1-c1ccccc1 (stereo partly drawn) [Example 3, (2S)-2-((([1,1′-biphenyl]-2-yloxy)(((2R,3R,4R,5R)-5-(2,4-dioxo-3,4-dihydropyrimidin-1(2H)-yl)-4-fluoro-3-hydroxy-4-methyltetrahydrofuran-2-yl)methoxy)phosphoryl)amino)propanoic Acid Isopropyl Ester] | 123 nM | 
3 | CC(C)OC(=O)[C@H](C)NP(=O)(OC[C@H]1O[C@@H](n2ccc(=O)[nH]c2=O)[C@](C)(F)[C@@H]1O)Oc1ccc(C#Cc2ccccc2)cc1 (stereo partly drawn) [Example 11] | 189 nM | 
4 | COC(=O)CNP(=O)(OC[C@H]1O[C@@H](n2ccc(=O)[nH]c2=O)[C@](C)(F)[C@@H]1O)Oc1cccc2c1CCCC2 (stereo partly drawn) [Example 14, (2S)-2-(((5,6,7,8-tetrahydronaphthalen-1-yloxy)(((2R,3R,4R,5R)-5-(2,4-dioxo-3,4-dihydropyrimidin-1(2H)-yl)-4-fluoro-3-hydroxy-4-methyltetrahydrofuran-2-yl)methoxy)phosphoryl)amino)acetic Acid Methyl Ester] | 223 nM | 
5 | C[C@H](NP(=O)(OC[C@H]1O[C@@H](n2ccc(=O)[nH]c2=O)[C@](C)(F)[C@@H]1O)Oc1cccc2c1CCCC2)C(=O)OC(C)(C)C (stereo partly drawn) [Example 15, (2S)-2-(((5,6,7,8-tetrahydronaphthalen-1-yloxy)(((2R,3R,4R,5R)-5-(2,4-dioxo-3,4-dihydropyrimidin-1(2H)-yl)-4-fluoro-3-hydroxy-4-methyltetrahydrofuran-2-yl)methoxy)phosphoryl)amino)propanoic Acid t-butyl Ester] | > 3330 nM | 
6 | CC(C)OC(=O)[C@H](C)NP(=O)(OC[C@H]1O[C@@H](n2ccc(=O)[nH]c2=O)[C@](C)(F)[C@@H]1O)Oc1ccc(-c2cncs2)cc1 (stereo partly drawn) [Example 17] | 258 nM | 
7 | CC(C)OC(=O)[C@H](C)NP(=O)(OC[C@H]1O[C@@H](n2ccc(=O)[nH]c2=O)[C@](C)(F)[C@@H]1O)Oc1ccc(/C=C/c2ccc(F)cc2)cc1 (stereo partly drawn) [Example 19, (2S)-2-(((4-((E)-4-fluorophenylethenylphenyl)-1-yloxy)(((2R,3R,4R,5R)-5-(2,4-dioxo-3,4-dihydropyrimidin-1(2H)-yl)-4-fluoro-3-hydroxy-4-methyltetrahydrofuran-2-yl)methoxy)phosphoryl)amino)propanoic Acid Isopropyl Ester] | 303 nM | 
8 | CC(C)OC(=O)[C@H](C)NP(=O)(OC[C@H]1O[C@@H](n2ccc(=O)[nH]c2=O)[C@](C)(F)[C@@H]1O)Oc1ccc2[nH]ccc2c1 (stereo partly drawn) [Example 20, (2S)-2-(((1H-indol-5-yloxy)(((2R,3R,4R,5R)-5-(2,4-dioxo-3,4-dihydropyrimidin-1(2H)-yl)-4-fluoro-3-hydroxy-4-methyltetrahydrofuran-2-yl)methoxy)phosphoryl)amino)propanoic Acid Isopropyl Ester] |  | 3870 nM
9 | Cc1cc2c(F)c(OP(=O)(N[C@@H](C)C(=O)OC(C)C)OC[C@H]3O[C@@H](n4ccc(=O)[nH]c4=O)[C@](C)(F)[C@@H]3O)ccc2[nH]1 (stereo partly drawn) [Example 21, (2S)-2-(((4-fluoro-2-methyl-1H-indol-5-yloxy)(((2R,3R,4R,5R)-5-(2,4-dioxo-3,4-dihydropyrimidin-1(2H)-yl)-4-fluoro-3-hydroxy-4-methyltetrahydrofuran-2-yl)methoxy)phosphoryl)amino)propanoic Acid Isopropyl Ester] | 258 nM | 
